According to paper PMC3830699 (2013):

System: 144 ydaO (RNA, riboswitch) GGGAAAACAAAUCGCUUAAUCUGAAAUCAGAGCGGGGGACCCAAUAGAACGGCUUUUUGCCGUUGGGGUGAAUCCUUUUUAGGUAGGGCUAACUCUCAUAUGCCCGAAUCCGUCAGCUAACCUCGUAAGCGUUCGUGAGAGGAGAU
Assay: in-line probing
Conditions: low millimolar; tested to 3.16 mM; taken as the shorter construct of b32

Nc1ncnc2c1ncn2[C@@H]1O[C@H](COP(=O)(O)OP(=O)(O)OP(=O)(O)O)[C@@H](O)[C@H]1O
binding: weak
